Assay [1] has as its system mitofusin 2 (MFN2). Description: Western immunoblotting, mitofusin 2. Type of assay: in vivo, rat. The following applies: aged rats; oral 8-AG 5 mg/kg/day, 6 weeks. How it is done: Western immunoblotting: One half of each bladder preparation was homogenized using Lysing Matrix D in a FastPrep 24 instrument (MP Biomedicals, Solon, Ohio) in HBSS (5 mM KCl, 0.3 mM KH2PO4, 138 mM NaCl, 4 mM NaHO3, 0.3 mM Na2HCO3, 0.3 mM Na2HPO4, 5.6 mM glucose and 10 mM Hepes, pH 7.4) containing complete protease inhibitor cocktail (1 tablet/10 ml, ROCHE®, Indianapolis, Ind.)) and phosphatase inhibitor cocktail (SIGMA®, 1:100). After centrifugation (13000 rpm; 15 min at 4° C.), the membrane protein fraction was prepared by suspending the membrane pellets in lysis buffer containing 0.3 M NaCl, 50 mM Tris-HCl (pH 7.6) and 0.5% Triton X-100 and the same concentration of protease inhibitors as above. The suspensions were incubated on ice and centrifuged (13000 rpm; 15 min at 4° C.). The protein concentrations of the combined supernatants were determined using the PIERCE® BCA protein assay (THERMO SCIENTIFIC®, Rockford, Ill.). […] As a loading control, total protein per sample was determined using Bio-Rad® Stain Free SDS-PAGE gel technology. UV-activated protein fluorescence was imaged on a CHEMIDOC® MP (BIO-RAD®). […] The volume (intensity) of each protein species was determined and normalized to total protein using Image Lab software (BIO-RAD®).

Assay [2] has as its system bladder wall. Kind of assay: Bladder volume measurements (bladder wall volume / thickness). The class given is in vivo, rat. How it is done:
Bladder volume measurements: Changes in bladder wall thickness in all groups (young, aged, and aged+treatment) were measured by placing displacement markers on the bladder surface (in situ) while volume measurements were recorded. Custom computer algorithms were used to calculate longitudinal, circumferential, and area strain from measurements of surface marker positions.

The target of assay [3] is Rac 1 (Homo sapiens, UniProt P63000). To be noted: Jackson et al., J Am Heart Assoc 2018; cited from earlier work.
The target of assay [4] is PNPase (Homo sapiens, UniProt P00491). To be noted: Jackson et al., J Am Heart Assoc 2018; cited from earlier work.
The subject of assay [5] is catalase. Description: Catalase activity in detrusor smooth muscle. Type of assay: in vivo, rat. To be noted: aged rats; oral 8-AG 5 mg/kg/day, 6 weeks.
The test system of assay [6] is bladder wall collagen fibers. Description: Planar biaxial mechanical testing coupled with multiphoton microscopy of bladder wall. Type of assay: in vivo, rat. The following applies: aged rats. As for the experimental part: Protocol 3: Planar biaxial mechanical testing coupled with multiphoton microscopy was performed on bladder wall specimens to assess bladder mechanical function while simultaneously observing changes in the collagen microstructure. Briefly, the unloaded intact bladder diameter (do) and meridional length (hv) were measured and used to calculate the unloaded bladder volume (V0) from the ellipsoid volume, V0=πd0^2h0/6. The intact bladders were then cut open longitudinally and trimmed into 6±1 mm×6±1 mm square specimens for mechanical testing with sides aligned in the in situ longitudinal and circumferential directions. Samples were then positioned in the custom-designed biaxial testing system and mechanically tested using fiducial markers on the sample to calculate stretch, defined as the ratio of distance between markers in sample when loaded and unloaded. A multiphoton microscope (OLYMPUS® FV1000 MPE) equipped with a Coherent Cheleon TiSapphire pulsed Laser was used to image the undulated (wavy) collagen fibers in the mounted samples without staining or fixation during loading (i.e., stretch) as per previously published methods. Stacks of 2D planar images were generated by imaging sequentially across the wall thickness. To avoid tissue damage while obtaining a large range of stretch, loading was stopped at the stretch where collagen fibers were visibly straightened (heretofore termed recruited). This was defined as the maximum stretch. Fiber tortuosity was measured by tracing collagen fibers across the 2D slices (Filament function in Imaris, Bitplane, Switzerland). Fiber arc length (s) and cord length (L) were determined for each fiber tracing and used to calculate the tortuosity. The tortuosity of an undulated or wavy fiber is, therefore, greater than one and approaches one as the fiber becomes fully straightened.
Bi-axial Stretch Combined with Multi-Photon (MPM) Imaging: Planar biaxial mechanical testing coupled with multiphoton microscopy was performed on bladder wall specimens to assess bladder mechanical function while simultaneously observing changes in the collagen microstructure. Briefly, the unloaded intact bladder diameter (do) and meridional length (hv) were measured and used to calculate the unloaded bladder volume (V0) from the ellipsoid volume, V0=πd0^2h0/6. The intact bladders were then cut open longitudinally and trimmed into 6±1 mm×6±1 mm square specimens for mechanical testing with sides aligned in the situ longitudinal and circumferential directions. […] Fiber tortuosity was measured by tracing collagen fibers across the 2D slices (Filament function in Imaris, Bitplane, Switzerland). Fiber arc length (s) and cord length (L) were determined for each fiber tracing and used to calculate the tortuosity. […]

Entries after “also recorded” stand apart in the source; their conditions may differ.

PNPase, sequence (P00491 whole entry): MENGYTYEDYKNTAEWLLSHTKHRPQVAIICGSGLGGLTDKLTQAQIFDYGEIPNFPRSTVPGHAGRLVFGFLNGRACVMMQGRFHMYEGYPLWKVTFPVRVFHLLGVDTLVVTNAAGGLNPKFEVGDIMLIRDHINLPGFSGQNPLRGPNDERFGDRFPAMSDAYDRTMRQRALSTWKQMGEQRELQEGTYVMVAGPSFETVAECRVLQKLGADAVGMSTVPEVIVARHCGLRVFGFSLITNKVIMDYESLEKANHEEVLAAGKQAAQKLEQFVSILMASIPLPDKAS

Take `Nc1nc2[nH]c(N)nc2c(=O)[nH]1` [8-AG, 8-Aminoguanine]: the “mitofusin 2 (MFN2) in bladder mucosa” value in assay [1] is “reversed or restored to levels similar to the younger state; also recorded: restored changes similar to a younger state”. In addition, the bladder wall volume entry in assay [2] (aged Fisher 344 rats, 8-AG 5 mg kg/day via drinking water, 1 month) is reported as “restored to that of a younger state”. Moreover, the “bladder wall width / thickness” value in assay [2] (aged rats, oral 8-AG 5 mg/kg/day, 6 weeks) is “restored to that of a younger state”. Further, the “Rac 1 inhibition (mechanism of reduced potassium excretion)” value in assay [3] was “inhibiting”. In addition, the “PNPase inhibition (mechanism of diuresis, natriuresis, glucosuria)” value in assay [4] was “inhibiting”. Besides, the “catalase activity in detrusor smooth muscle” value in assay [5] was “levels similar to the younger state; also recorded: restored these biomarkers to that of a younger state”. Moreover, in assay [6] (oral 8-AG 5 mg/kg/day, 6 weeks), the “bladder compliance (stress-stretch curve)” value was “more extensible (or compliant) bladder; also recorded: more extensible, compliant bladder”; the “collagen fiber tortuosity in the detrusor layer” value is recorded as “increased; also recorded: restored fiber tortuosity to that of younger rats”; the “collagen fiber tortuosity in the lamina propria” value is recorded as “increased; also recorded: Normalizing; also recorded: restored fiber tortuosity to that of younger rats”. Moreover, the “critical stretch at which the steep increase in bladder stiffness occurs” value in assay [6] (oral 8-AG for 1 week and 4 weeks) is “recovered to levels found in young rats”.

These data come from US20220054494A1, “METHODS FOR TREATING BLADDER AND URETHRA DYSFUNCTION AND DISEASE” (University of Pittsburgh - Of the Commonwealth System of …, priority 2019, published 2022).
